Measurements as given in publication PMC7827014, “Synthetic Transition from Thiourea-Based Compounds to Tetrazole Derivatives: Structure and Biological Evaluation of Synthesized New N-(Furan-2-ylmethyl)-1H-tetrazol-5-amine Derivatives” (Molecules, 2021).
In brackets after ≈: the same amount, converted by molar mass. Like-named read-outs stand apart in the source and are kept apart here.

How the values were obtained:
[1] = test system: A549; assay: MTT assay 72 h; assay type: cell-based, human
Method: (§1) The cell viability was assessed by using an enzymatic conversion of 3-(4,5-dimethylthiazol-2-yl)-2,5-diphenyltetrazolium bromide salt (MTT) to insoluble formazan crystals by mitochondrial dehydrogenases, occurring in living cells. Cells were cultured in 96-well plates at a density of l × 10^4 cells per well, and cultured to adhere for 24 h at 37 °C in a CO2 incubator. After 24 h of incubation, culture medium was replaced with a fresh medium, then cells were treated with various concentrations of the compounds and incubated for 72 h at 37 °C in a CO2 incubator. Untreated cells were used as the control. Subsequently, MTT solution (0,5 mg/mL in free-serum medium) was added, and samples were incubated for 4 h at 37 °C in a CO2 incubator. Then, the medium was aspirated, and formed formazan crystals were solubilized by adding an isopropanol-DMSO mixture (1:1 vol). The intensity of the dissolved crystals was measured using a UVM 340 reader (ASYS Hitech GmbH, Austria), at a wavelength of 570 nm. Cell viability was presented as a percent of MTT reduced in treated cells versus control cells (incubated without tested compounds). The relative MTT level (%) was calculated as [A]/[B]×100, where [A] is the absorbance of the test sample, and [B] is the absorbance of the control sample containing the untreated cells. The IC50 value was estimated using CalcuSyn version 1.0. […]
(§2) Antiproliferative activity of tested compounds. Data are given as IC50 [µM] and SI.
(§3) Human immortal keratinocyte cell line from adult human skin (HaCaT), Human colorectal adenocarcinoma (CaCo-2), Human epithelial lung carcinoma cell line (A549) and Human melanoma cell line (HTB-140). Data are expressed as mean ± SD. The SI (Selectivity Index) was calculated for each compound using formula: SI = IC50 for normal cel line / IC50 cancer cel line.

[2] = test system: HaCaT; assay: MTT assay 72 h; assay type: cell-based, human
Method: as §1, §2, §3

[3] = test system: HTB-140; assay: MTT assay 72 h; assay type: cell-based, human; details: HTB-140, MTT 72 h, mean ± SD
Method: as §1, §2, §3

[4] = test system: M. tuberculosis H37Rv; assay: In vitro antitubercular MIC; assay type: cell-based; details: Mycobacterium tuberculosis, read-out: Minimal inhibitory concentration
[5] = test system: M. tuberculosis INH susceptible (Spec. 192); assay: In vitro antitubercular MIC; assay type: cell-based; details: Mycobacterium tuberculosis, read-out: Minimal inhibitory concentration
[6] = test system: Caco-2; assay: MTT assay 72 h; assay type: cell-based; details: Homo sapiens
Method: as §1, §2, §3

[7] = test system: S. aureus NCTC 4163; assay: MIC microdilution, standard strain; assay type: cell-based; details: Staphylococcus aureus
[8] = test system: E. hirae ATCC 10541; assay: MIC microdilution, standard strain; assay type: cell-based
[9] = test system: S. epidermidis ATCC 12228; assay: MIC microdilution, standard strain; assay type: cell-based
[10] = test system: E. coli ATCC 25922; assay: MIC microdilution, standard strain; assay type: cell-based; details: E. coli ATCC 25922, 18 h, 35 °C
[11] = test system: E. coli NCTC 8196; assay: MIC microdilution, standard strain; assay type: cell-based; details: E. coli NCTC 8196, 18 h, 35 °C
[12] = test system: S. aureus ATCC 29213; assay: MIC microdilution, standard strain; assay type: cell-based; details: Staphylococcus aureus
[13] = test system: E. hirae ATCC 10541; design: method as in PMID 30031974; details: previous project ref 20; cited from earlier work
[14] = test system: S. aureus NCTC 4163; design: method as in PMID 30031974; details: previous project ref 20; cited from earlier work
[15] = test system: P. aeruginosa ATCC 15442; design: method as in PMID 30031974; details: previous project ref 20; cited from earlier work
[16] = test system: P. aeruginosa ATCC 27853; design: method as in PMID 30031974; details: previous project ref 20; cited from earlier work
[17] = test system: S. epidermidis ATCC 12228; design: method as in PMID 30031974; details: previous project ref 20; cited from earlier work
[18] = test system: P. aeruginosa ATCC 15442; assay: MIC microdilution, standard strain; assay type: cell-based; details: Pseudomonas aeruginosa, ATCC15442, 18 h
[19] = test system: standard bacterial strains; design: method as in PMID 30031974; details: various standard bacterial strains; cited from earlier work
[20] = test system: hospital staphylococcal isolates; design: method as in PMID 30031974; details: clinical cocci; cited from earlier work
[21] = Homo sapiens, A549, MTT 72 h, mean ± SD, read-out: IC50
[22] = Homo sapiens, HaCaT normal cells, MTT 72 h, mean ± SD, read-out: IC50
[23] = Caco-2, MTT 72 h, mean ± SD, read-out: IC50
[24] = Enterococcus hirae, ATCC10541, E. hirae ATCC 10541, 18 h, 35 °C, read-out: MIC
[25] = Staphylococcus epidermidis, ATCC12228, S. epidermidis ATCC 12228, 18 h, 35 °C, read-out: MIC
[26] = Escherichia coli, NCTC8196, read-out: MIC
[27] = NCTC4163, S. aureus NCTC 4163, 18 h, 35 °C, read-out: MIC
[28] = ATCC29213, S. aureus ATCC 29213, 18 h, 35 °C, read-out: MIC
[29] = Escherichia coli, ATCC25922, read-out: MIC

Row | Compound | IC50 [1, 21] [µM] | IC50 [2, 22] [µM] | IC50 ([3]; Homo sapiens) [µM] | MIC [4] [µg/mL] | MIC [5] [µg/mL] | IC50 [6, 23] [µM] | also measured
1 | Brc1ccc(-n2nnnc2NCc2ccco2)cc1 [Compound 10, 1-(4-bromophenyl)-N-(furan-2-ylmethyl)-1H-tetrazol-5-amine] | > 100 | > 100 | > 100 | > 512 | > 512 | > 100 | 
2 | Brc1cccc(-n2nnnc2NCc2ccco2)c1 [Compound 7, 1-(3-bromophenyl)-N-(furan-2-ylmethyl)-1H-tetrazol-5-amine] | > 100 | > 100 | > 100 | 512 (≈ 1600 µM) | 512 (≈ 1600 µM) | > 100 | 
3 | Fc1cccc(-n2nnnc2NCc2ccco2)c1 [Compound 9, 1-(3-fluorophenyl)-N-(furan-2-ylmethyl)-1H-tetrazol-5-amine] | > 100 | > 100 | > 100 | 256 (≈ 987 µM) | 256 (≈ 987 µM) | > 100 | 
4 | Clc1cccc(-n2nnnc2NCc2ccco2)c1 [Compound 4, 1-(3-chlorophenyl)-N-(furan-2-ylmethyl)-1H-tetrazol-5-amine] | > 100 | > 100 | > 100 | > 512 | 512 (≈ 1860 µM) | > 100 | MIC ([7]; NCTC4163, 18 h): 256 µg/mL (≈ 929 µM); MIC [8, 24]: 512 µg/mL (≈ 1860 µM); MIC [9, 25]: 512 µg/mL (≈ 1860 µM); MIC [10]: >; MIC [11, 26]: 512 µg/mL (≈ 1860 µM); MIC ([12]; ATCC29213, 18 h): 256 µg/mL (≈ 929 µM)
5 | NNC(=O)c1ccncc1 [INH, isoniazid, reference compound] |  |  |  | ≤ 0.0625 | ≤ 0.0625 |  | 
6 | COc1cccc2c1C(=O)c1c(O)c3c(c(O)c1C2=O)C[C@@](O)(C(=O)CO)C[C@@H]3O[C@H]1C[C@H](N)[C@H](O)[C@H](C)O1 [doxorubicin, reference compound] |  |  |  |  |  |  | IC50 ([1]; Homo sapiens, A549, 72 h): 0.63 µM; IC50 ([2]; Homo sapiens, HaCaT, 72 h): 1.09 µM; IC50 ([6]; Caco-2, 72 h): 0.53 µM
7 | Clc1ccc(-n2nnnc2NCc2ccco2)cc1 [Compound 8, 1-(4-chlorophenyl)-N-(furan-2-ylmethyl)-1H-tetrazol-5-amine] | > 100 | > 100 | > 100 | 256 (≈ 929 µM) | 512 (≈ 1860 µM) | > 100 | MIC [7, 27]: 128 µg/mL (≈ 464 µM); MIC ([8]; E. hirae ATCC 10541, 18 h, 35 °C): >; MIC ([9]; S. epidermidis ATCC 12228, 18 h, 35 °C): >; MIC [10]: >; MIC [11]: >; MIC [12, 28]: 128 µg/mL (≈ 464 µM)
8 | Cc1ccc(Cl)cc1-n1nnnc1NCc1ccco1 [Compound 2, 1-(5-chloro-2-methylphenyl)-N-(furan-2-ylmethyl)-1H-tetrazol-5-amine] | > 100 | > 100 | > 100 | > 512 | > 512 | > 100 | MIC [7, 27]: 64 µg/mL (≈ 221 µM); MIC [8, 24]: 64 µg/mL (≈ 221 µM); MIC [9, 25]: 256 µg/mL (≈ 884 µM); MIC [10, 29]: 128 µg/mL (≈ 442 µM); MIC [11, 26]: 128 µg/mL (≈ 442 µM); MIC [12, 28]: 64 µg/mL (≈ 221 µM)
9 | Clc1ccc(-n2nnnc2NCc2ccco2)cc1Cl [Compound 5, 1-(3,4-dichlorophenyl)-N-(furan-2-ylmethyl)-1H-tetrazol-5-amine] | > 100 | > 100 | > 100 | > 512 | > 512 | > 100 | 
10 | Cc1ccc(-n2nnnc2NCc2ccco2)cc1Cl [Ref 1, 1-(3-chloro-4-methylphenyl)-N-(furan-2-ylmethyl)-1H-tetrazol-5-amine] |  |  |  |  |  |  | MIC [13]: 8 µg/mL (≈ 27.6 µM); MIC [14]: 4 µg/mL (≈ 13.8 µM); MIC [15]: 32 µg/mL (≈ 110 µM); MIC [16]: 4 µg/mL (≈ 13.8 µM); MIC [17]: 2 µg/mL (≈ 6.9 µM)
11 | Ic1ccc(-n2nnnc2NCc2ccco2)cc1 [Compound 3, N-(furan-2-ylmethyl)-1-(4-iodophenyl)-1H-tetrazol-5-amine] | > 100 | > 100 | > 100 | > 512 | > 512 | > 100 | MIC [7, 27]: 64 µg/mL (≈ 174 µM); MIC [8, 24]: 128 µg/mL (≈ 349 µM); MIC [9, 25]: 128 µg/mL (≈ 349 µM); MIC [10, 29]: 128 µg/mL (≈ 349 µM); MIC [11, 26]: 128 µg/mL (≈ 349 µM); MIC [12, 28]: 64 µg/mL (≈ 174 µM); MIC [18]: 512 µg/mL (≈ 1390 µM)
12 | O=C(O)c1cn(C2CC2)c2cc(N3CCNCC3)c(F)cc2c1=O [Ciprofloxacin, reference compound] |  |  |  |  |  |  | MIC ([8]; Enterococcus hirae, ATCC10541, 18 h): 2 µg/mL (≈ 6.04 µM)
13 | Clc1ccccc1-n1nnnc1NCc1ccco1 [Compound 11, 1-(2-chlorophenyl)-N-(furan-2-ylmethyl)-1H-tetrazol-5-amine] | > 100 | > 100 | > 100 | 512 (≈ 1860 µM) | 256 (≈ 929 µM) | > 100 | 
14 | N.N.[Cl][Pt][Cl] [cisplatin, reference compound] |  |  |  |  |  |  | IC50 ([1]; A549, MTT 72 h, mean ± SD, read-out: IC50): 1.95 µM; IC50 ([2]; HaCaT normal cells, MTT 72 h, mean ± SD, read-out: IC50): 2.84 µM; IC50 [3]: 1.13 µM
15 | Fc1ccc(-n2nnnc2NCc2ccco2)cc1Cl [Ref 2, 1-(3-chloro-4-fluorophenyl)-N-(furan-2-ylmethyl)-1H-tetrazol-5-amine] |  |  |  |  |  |  | MIC (range) [19]: 0.25 to 4 µg/mL; MIC [13]: 4 µg/mL (≈ 13.6 µM); MIC [14]: 2 µg/mL (≈ 6.81 µM); MIC [15]: 64 µg/mL (≈ 218 µM); MICs (range) [20]: 2 to 16 µg/mL; MIC [16]: 2 µg/mL (≈ 6.81 µM); MIC [17]: 2 µg/mL (≈ 6.81 µM)
16 | Fc1ccc(-n2nnnc2NCc2ccco2)cc1 [Compound 1, 1-(4-fluorophenyl)-N-(furan-2-ylmethyl)-1H-tetrazol-5-amine] | > 100 | > 100 | > 100 | 256 (≈ 987 µM) | 256 (≈ 987 µM) | > 100 | MIC [7, 27]: 64 µg/mL (≈ 247 µM); MIC ([9]; Staphylococcus epidermidis, ATCC12228, 18 h): 256 µg/mL (≈ 987 µM); MIC [10, 29]: 128 µg/mL (≈ 494 µM); MIC [11, 26]: 128 µg/mL (≈ 494 µM); MIC [12, 28]: 64 µg/mL (≈ 247 µM)
17 | Brc1ccccc1-n1nnnc1NCc1ccco1 [Compound 12, 1-(2-bromophenyl)-N-(furan-2-ylmethyl)-1H-tetrazol-5-amine] | > 100 | > 100 | > 100 | 512 (≈ 1600 µM) | 512 (≈ 1600 µM) | > 100 | 
